Laboratory results: US6358885B1, “Substituted phenylheterocyclic herbicides” (Mississippi State University, priority 1992, dated 2002)

Assays:
barnyardgrass = test: Test B preemergence/postemergence greenhouse plant response rating 0 to 10; type: in vivo, Echinochloa crus-galli; details: for Plant response rating, Barnyardgrass: 0 to 10 scale
Method in brief: (§1)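 Planted seeds are treated preemergence with compound dissolved in a non-phytotoxic solvent, while postemergence applications go onto plants of two to eighteen cm. Plants stay in the greenhouse twelve to sixteen days and are then rated visually relative to controls.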

blackgrass = test: as above; type: in vivo, Alopecurus myosuroides; details: for Plant response rating, Blackgrass: 0 to 10 scale
Method in brief: as §1

crabgrass = test: as above; type: in vivo, Digitaria spp.; details: for Plant response rating, Crabgrass: 0 to 10 scale
Method in brief: as §1

giant foxtail = test: as above; type: in vivo, Setaria faberii; details: for Plant response rating, Giant foxtail: 0 to 10 scale
Method in brief: as §1

rape = test: as above; type: in vivo, Brassica napus; details: for Plant response rating, Rape: 0 to 10 scale
Method in brief: as §1

purple nutsedge = test: as above; type: in vivo, Cyperus rotundus; details: for Plant response rating, Nutsedge: 0 to 10 scale
Method in brief: as §1

corn = test: Test C preemergence/postemergence greenhouse plant response rating 0 to 100; type: in vivo, Zea mays; details: for Plant response rating, Corn: 125 g/ha, 0 to 100 scale
Method in brief: (§2)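 Compounds in non-phytotoxic solvent applied preemergence to sandy loam one day after planting, postemergence at the 1–4 leaf stage, or to ~2.5 cm floodwater over silt loam.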

morningglory = test: as above; type: in vivo, Ipomoea hederacea; details: for Plant response rating, Morningglory: 125 g/ha, 0 to 100 scale
Method in brief: as §2

wheat = test: as above; type: in vivo, Triticum aestivum; details: for Plant response rating, Wheat: 125 g/ha, 0 to 100 scale
Method in brief: as §2

wild buckwheat = test: as above; type: in vivo, Polygonum convolvulus; details: for Plant response rating, Wild buckwheat: 125 g/ha, 0 to 100 scale
Method in brief: as §2

wild oat = test: as above; type: in vivo, Avena fatua; details: for Plant response rating, Wild oat: 125 g/ha, 0 to 100 scale
Method in brief: as §2

rice = test: Test C flood test plant response rating 0 to 100; type: in vivo, Oryza sativa
Method in brief: as §2

SMILES: CCOCOc1cc(-c2nn3c(c2Cl)CCCC3)c(F)cc1Cl [Compound 59]
- Plant response rating, Barnyardgrass (barnyardgrass; POSTEMERGENCE, Rate 50 g/ha): 5
- Plant response rating, Barnyardgrass (barnyardgrass; PREEMERGENCE, Rate 50 g/ha): 6
- Plant response rating (0 to 10 scale), Barnyardgrass (barnyardgrass; PREEMERGENCE, Rate 200 g/ha): 8
- Plant response rating, Barnyardgrass (barnyardgrass; Rate 200 g/ha, POSTEMERGENCE): 9
- Plant response rating, Blackgrass (blackgrass; POSTEMERGENCE, Rate 50 g/ha): 4
- Plant response rating, Blackgrass (blackgrass; PREEMERGENCE, Rate 50 g/ha): 4
- Plant response rating (0 to 10 scale), Blackgrass (blackgrass; PREEMERGENCE, Rate 200 g/ha): 5
- Plant response rating, Blackgrass (blackgrass; Rate 200 g/ha, POSTEMERGENCE): 5
- Plant response rating, Crabgrass (crabgrass; POSTEMERGENCE, Rate 50 g/ha): 4
- Plant response rating, Crabgrass (crabgrass; PREEMERGENCE, Rate 50 g/ha): 5
- Plant response rating (0 to 10 scale), Crabgrass (crabgrass; PREEMERGENCE, Rate 200 g/ha): 10
- Plant response rating, Crabgrass (crabgrass; Rate 200 g/ha, POSTEMERGENCE): 5
- Plant response rating, Giant foxtail (giant foxtail; POSTEMERGENCE, Rate 50 g/ha): 6
- Plant response rating, Giant foxtail (giant foxtail; PREEMERGENCE, Rate 50 g/ha): 9
- Plant response rating (0 to 10 scale), Giant foxtail (giant foxtail; PREEMERGENCE, Rate 200 g/ha): 10
- Plant response rating, Giant foxtail (giant foxtail; Rate 200 g/ha, POSTEMERGENCE): 7
- Plant response rating, Rape (rape; POSTEMERGENCE, Rate 50 g/ha): 10
- Plant response rating, Rape (rape; PREEMERGENCE, Rate 50 g/ha): 5
- Plant response rating (0 to 10 scale), Rape (rape; PREEMERGENCE, Rate 200 g/ha): 10
- Plant response rating, Rape (rape; Rate 200 g/ha, POSTEMERGENCE): 10
- Plant response rating, Nutsedge (purple nutsedge; POSTEMERGENCE, Rate 50 g/ha): 2
- Plant response rating, Nutsedge (purple nutsedge; PREEMERGENCE, Rate 50 g/ha): 0
- Plant response rating (0 to 10 scale), Nutsedge (purple nutsedge; PREEMERGENCE, Rate 200 g/ha): 0
- Plant response rating, Nutsedge (purple nutsedge; Rate 200 g/ha, POSTEMERGENCE): 5
- Plant response rating, Corn (corn; POSTEMERGENCE): 65
- Plant response rating (0 to 100), Corn (corn; POSTEMERGENCE, Rate 2 g/ha): 30
- Plant response rating, Corn (corn; PREEMERGENCE): 0
- Plant response rating (0 to 100), Corn (corn; PREEMERGENCE, Rate 2 g/ha): 0
- Plant response rating (0 to 100), Corn (corn; Rate 8 g/ha, POSTEMERGENCE): 40
- Plant response rating (0 to 100), Corn (corn; Rate 8 g/ha, PREEMERGENCE): 0
- Plant response rating (0 to 100), Corn (corn; Rate 31 g/ha, POSTEMERGENCE): 50
- Plant response rating (0 to 100), Corn (corn; Rate 31 g/ha, PREEMERGENCE): 0
- Plant response rating, Morningglory (morningglory; POSTEMERGENCE): 85
- Plant response rating (0 to 100), Morningglory (morningglory; POSTEMERGENCE, Rate 2 g/ha): 70
- Plant response rating, Morningglory (morningglory; PREEMERGENCE): 10
- Plant response rating (0 to 100), Morningglory (morningglory; PREEMERGENCE, Rate 2 g/ha): 0
- Plant response rating (0 to 100), Morningglory (morningglory; Rate 8 g/ha, POSTEMERGENCE): 70
- Plant response rating (0 to 100), Morningglory (morningglory; Rate 8 g/ha, PREEMERGENCE): 0
- Plant response rating (0 to 100), Morningglory (morningglory; Rate 31 g/ha, POSTEMERGENCE): 85
- Plant response rating (0 to 100), Morningglory (morningglory; Rate 31 g/ha, PREEMERGENCE): 10
- Plant response rating, Wheat (wheat; POSTEMERGENCE): 70
- Plant response rating (0 to 100), Wheat (wheat; POSTEMERGENCE, Rate 2 g/ha): 10
- Plant response rating, Wheat (wheat; PREEMERGENCE): 10
- Plant response rating (0 to 100), Wheat (wheat; PREEMERGENCE, Rate 2 g/ha): 0
- Plant response rating (0 to 100), Wheat (wheat; Rate 8 g/ha, POSTEMERGENCE): 40
- Plant response rating (0 to 100), Wheat (wheat; Rate 8 g/ha, PREEMERGENCE): 0
- Plant response rating (0 to 100), Wheat (wheat; Rate 31 g/ha, POSTEMERGENCE): 60
- Plant response rating (0 to 100), Wheat (wheat; Rate 31 g/ha, PREEMERGENCE): 0
- Plant response rating, Wild buckwheat (wild buckwheat; POSTEMERGENCE): 100
- Plant response rating (0 to 100), Wild buckwheat (wild buckwheat; POSTEMERGENCE, Rate 2 g/ha): 100
- Plant response rating, Wild buckwheat (wild buckwheat; PREEMERGENCE): 100
- Plant response rating (0 to 100), Wild buckwheat (wild buckwheat; PREEMERGENCE, Rate 2 g/ha): 0
- Plant response rating (0 to 100), Wild buckwheat (wild buckwheat; Rate 8 g/ha, POSTEMERGENCE): 100
- Plant response rating (0 to 100), Wild buckwheat (wild buckwheat; Rate 8 g/ha, PREEMERGENCE): 0
- Plant response rating (0 to 100), Wild buckwheat (wild buckwheat; Rate 31 g/ha, POSTEMERGENCE): 100
- Plant response rating (0 to 100), Wild buckwheat (wild buckwheat; Rate 31 g/ha, PREEMERGENCE): 50
- Plant response rating, Wild oat (wild oat; POSTEMERGENCE): 60
- Plant response rating (0 to 100), Wild oat (wild oat; POSTEMERGENCE, Rate 2 g/ha): 10
- Plant response rating, Wild oat (wild oat; PREEMERGENCE): 30
- Plant response rating (0 to 100), Wild oat (wild oat; PREEMERGENCE, Rate 2 g/ha): 0
- Plant response rating (0 to 100), Wild oat (wild oat; Rate 8 g/ha, POSTEMERGENCE): 30
- Plant response rating (0 to 100), Wild oat (wild oat; Rate 8 g/ha, PREEMERGENCE): 0
- Plant response rating (0 to 100), Wild oat (wild oat; Rate 31 g/ha, POSTEMERGENCE): 40
- Plant response rating (0 to 100), Wild oat (wild oat; Rate 31 g/ha, PREEMERGENCE): 0
- Plant response rating (0 to 100), Rice Japonica (rice; POSTEMERGENCE section, flood test, Rate 2 g/ha): 0
- Plant response rating (0 to 100), Rice Japonica (rice; Rate 8 g/ha, under POSTEMERGENCE head (flood test species)): 0
- Plant response rating (0 to 100), Rice Japonica (rice; Rate 31 g/ha, under POSTEMERGENCE head (flood test species)): 0
- Plant response rating Rice Japonica (rice; flood test species listed under POSTEMERGENCE, 125 g/ha, 0 to 100 scale): 40
